Reference: ChEMBL document CHEMBL4387773, “Identification of potent, selective and orally bioavailable phenyl ((R)-3-phenylpyrrolidin-3-yl)sulfone analogues as RORγt inverse agonists” (Bioorg Med Chem Lett, 2019)

Key:
[1] = target: Cytochrome P450 2C9 (Homo sapiens, UniProt P11712); assay: Inhibition of CYP2C9 (unknown origin); assay type: ADME
[2] = target: T1, Oxysterols receptor LXR-beta (Homo sapiens, UniProt P55055); assay: Transactivation of human GAL4-fused LXRbeta expressed in African green monkey CV1 cells; assay type: cell-based
T1 sequence (P55055 whole entry): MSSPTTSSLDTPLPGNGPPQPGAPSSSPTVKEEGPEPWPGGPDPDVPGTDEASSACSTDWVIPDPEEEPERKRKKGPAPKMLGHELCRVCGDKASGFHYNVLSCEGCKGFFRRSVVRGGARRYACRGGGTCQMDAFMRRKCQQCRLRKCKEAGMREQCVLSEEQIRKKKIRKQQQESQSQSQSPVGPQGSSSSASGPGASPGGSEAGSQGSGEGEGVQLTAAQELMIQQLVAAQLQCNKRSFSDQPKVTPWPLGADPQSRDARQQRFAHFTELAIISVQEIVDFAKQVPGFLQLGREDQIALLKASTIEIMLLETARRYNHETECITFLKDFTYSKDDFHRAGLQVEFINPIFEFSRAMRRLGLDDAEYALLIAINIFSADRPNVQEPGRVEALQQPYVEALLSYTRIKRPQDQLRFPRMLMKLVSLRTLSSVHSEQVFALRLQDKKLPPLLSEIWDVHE

[3] = Permeability in human Caco2 cells; assay type: ADME, cell-based; settings: Caco-2, read-out: permeability
[4] = target: T2, Nuclear receptor subfamily 1 group I member 2 (Homo sapiens, UniProt O75469); assay: Transactivation of PXR (unknown origin) expressed in human HepG2 cells; assay type: cell-based
T2 sequence (O75469 whole entry): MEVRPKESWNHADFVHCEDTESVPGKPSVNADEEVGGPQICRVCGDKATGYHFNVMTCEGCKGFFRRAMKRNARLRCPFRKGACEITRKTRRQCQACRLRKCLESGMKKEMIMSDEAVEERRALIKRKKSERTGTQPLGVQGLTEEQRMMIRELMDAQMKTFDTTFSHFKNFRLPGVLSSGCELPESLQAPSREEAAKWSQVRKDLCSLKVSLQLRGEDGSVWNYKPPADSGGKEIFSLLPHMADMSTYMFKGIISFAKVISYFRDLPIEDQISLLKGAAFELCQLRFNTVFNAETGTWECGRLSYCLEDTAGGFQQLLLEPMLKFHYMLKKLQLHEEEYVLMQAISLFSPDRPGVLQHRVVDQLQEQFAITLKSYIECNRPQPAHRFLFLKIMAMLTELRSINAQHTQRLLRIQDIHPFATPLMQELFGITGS

[5] = Stability in human liver microsomes assessed as parent compound remaining after 10 mins; assay type: ADME, Microsome; settings: liver microsomes, read-out: Stability
[6] = target: T3, Oxysterols receptor LXR-alpha (Homo sapiens, UniProt Q13133); assay: Transactivation of human GAL4-fused LXRalpha expressed in African green monkey CV1 cells; assay type: cell-based
T3 sequence (Q13133 whole entry): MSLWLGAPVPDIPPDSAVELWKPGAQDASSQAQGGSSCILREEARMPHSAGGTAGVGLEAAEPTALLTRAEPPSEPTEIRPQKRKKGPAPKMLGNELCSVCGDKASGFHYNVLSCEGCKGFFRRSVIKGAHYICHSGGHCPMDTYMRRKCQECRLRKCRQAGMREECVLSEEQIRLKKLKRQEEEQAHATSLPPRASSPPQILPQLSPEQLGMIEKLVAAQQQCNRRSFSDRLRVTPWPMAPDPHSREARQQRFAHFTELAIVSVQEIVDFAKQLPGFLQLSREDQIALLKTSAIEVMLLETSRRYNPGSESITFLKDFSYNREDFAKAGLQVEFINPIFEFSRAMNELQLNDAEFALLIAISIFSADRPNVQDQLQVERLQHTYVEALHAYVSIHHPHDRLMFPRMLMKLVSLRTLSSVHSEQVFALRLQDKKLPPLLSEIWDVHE

[7] = target: T4, Cytochrome P450 1A2 (Homo sapiens, UniProt P05177); assay: Inhibition of CYP1A2 (unknown origin); assay type: ADME
T4 sequence (P05177 whole entry): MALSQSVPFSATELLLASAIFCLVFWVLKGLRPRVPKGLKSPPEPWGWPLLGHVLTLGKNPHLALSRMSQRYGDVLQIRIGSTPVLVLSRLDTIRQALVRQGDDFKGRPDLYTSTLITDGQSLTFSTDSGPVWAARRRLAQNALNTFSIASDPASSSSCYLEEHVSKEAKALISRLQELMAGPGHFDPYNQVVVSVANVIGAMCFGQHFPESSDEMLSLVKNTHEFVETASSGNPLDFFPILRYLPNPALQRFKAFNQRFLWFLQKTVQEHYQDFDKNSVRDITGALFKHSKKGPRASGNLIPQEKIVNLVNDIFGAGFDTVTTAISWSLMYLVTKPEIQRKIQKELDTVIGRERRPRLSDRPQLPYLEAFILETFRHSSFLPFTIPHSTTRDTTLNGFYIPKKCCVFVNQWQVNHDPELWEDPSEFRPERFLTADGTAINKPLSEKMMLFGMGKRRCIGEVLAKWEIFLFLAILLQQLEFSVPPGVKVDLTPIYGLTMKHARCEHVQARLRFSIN

[8] = target: Cytochrome P450 3A4 (Homo sapiens, UniProt P08684); assay: Inhibition of CYP3A4 (unknown origin); assay type: ADME
[9] = Half life in human liver microsomes; assay type: ADME, Microsome
[10] = target: T5, Cytochrome P450 2B6 (Homo sapiens, UniProt P20813); assay: Inhibition of CYP2B6 (unknown origin); assay type: ADME
T5 sequence (P20813 whole entry): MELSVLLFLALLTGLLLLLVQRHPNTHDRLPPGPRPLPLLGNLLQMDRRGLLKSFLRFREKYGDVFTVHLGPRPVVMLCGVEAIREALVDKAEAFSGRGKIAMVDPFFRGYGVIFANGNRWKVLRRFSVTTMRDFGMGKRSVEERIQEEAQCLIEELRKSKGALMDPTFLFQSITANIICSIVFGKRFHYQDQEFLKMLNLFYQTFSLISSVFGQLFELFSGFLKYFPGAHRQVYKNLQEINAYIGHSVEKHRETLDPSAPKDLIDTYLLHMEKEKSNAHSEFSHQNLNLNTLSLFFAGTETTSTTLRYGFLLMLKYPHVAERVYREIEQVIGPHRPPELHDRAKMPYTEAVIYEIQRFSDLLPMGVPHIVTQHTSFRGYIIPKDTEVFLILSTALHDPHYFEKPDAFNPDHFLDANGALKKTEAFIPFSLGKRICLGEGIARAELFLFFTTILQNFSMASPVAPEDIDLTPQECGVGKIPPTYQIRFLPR

Sequence of Cytochrome P450 2C9 (P11712 whole entry, the tested form may be a part): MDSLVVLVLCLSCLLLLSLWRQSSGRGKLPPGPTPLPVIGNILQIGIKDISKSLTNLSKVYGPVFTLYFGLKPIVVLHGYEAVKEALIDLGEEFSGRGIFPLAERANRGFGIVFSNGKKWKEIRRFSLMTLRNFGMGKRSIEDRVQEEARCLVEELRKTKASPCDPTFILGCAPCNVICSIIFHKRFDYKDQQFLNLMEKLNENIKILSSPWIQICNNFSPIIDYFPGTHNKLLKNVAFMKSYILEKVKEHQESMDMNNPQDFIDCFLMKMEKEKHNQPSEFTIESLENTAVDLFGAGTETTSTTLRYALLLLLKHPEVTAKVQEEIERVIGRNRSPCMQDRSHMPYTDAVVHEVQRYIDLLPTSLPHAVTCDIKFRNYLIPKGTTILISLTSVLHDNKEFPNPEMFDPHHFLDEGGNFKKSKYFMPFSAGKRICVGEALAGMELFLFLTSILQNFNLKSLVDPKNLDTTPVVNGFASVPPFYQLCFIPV
Sequence of Cytochrome P450 3A4 (P08684 whole entry): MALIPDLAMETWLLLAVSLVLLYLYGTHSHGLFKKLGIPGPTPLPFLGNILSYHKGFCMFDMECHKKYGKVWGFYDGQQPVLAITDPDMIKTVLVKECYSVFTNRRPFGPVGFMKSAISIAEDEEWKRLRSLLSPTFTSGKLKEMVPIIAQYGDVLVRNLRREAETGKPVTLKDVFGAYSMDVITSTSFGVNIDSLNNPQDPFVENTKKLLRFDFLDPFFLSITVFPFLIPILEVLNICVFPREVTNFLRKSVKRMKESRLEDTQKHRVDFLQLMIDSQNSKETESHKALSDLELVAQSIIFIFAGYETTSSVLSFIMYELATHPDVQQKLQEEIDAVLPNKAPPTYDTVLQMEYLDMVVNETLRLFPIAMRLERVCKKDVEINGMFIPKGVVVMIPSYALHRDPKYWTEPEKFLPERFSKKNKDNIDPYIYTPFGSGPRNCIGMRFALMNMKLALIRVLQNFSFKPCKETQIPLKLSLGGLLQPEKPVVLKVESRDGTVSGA

| Structure (SMILES) | IC50 [1] | EC50 [2] | Papp [3] | EC50 [4] | remaining at 10 min [5] | EC50 [6] | IC50 [7] | IC50 [8] | half-life [9] | IC50 [10] |
| --- | --- | --- | --- | --- | --- | --- | --- | --- | --- | --- |
| O=C(O)C12CCC(C(=O)N3CC[C@](c4ccc(C(F)(C(F)(F)F)C(F)(F)F)cc4)(S(=O)(=O)c4ccc(F)cc4)C3)(CC1)CC2 | > 10 µM | > 7.5 µM | 15 ×10⁻⁶ cm/s | > 50 µM | 100% | > 7.5 µM | > 10 µM | > 10 µM | > 2 h | > 10 µM |
| CC[C@]1(C(=O)N2CC[C@](c3ccc(C(F)(C(F)(F)F)C(F)(F)F)cc3)(S(=O)(=O)c3ccc(F)cc3)C2)CC[C@H](C(=O)O)CC1 | > 10 µM | > 7.5 µM | 15.3 ×10⁻⁶ cm/s | > 50 µM | 89% | > 7.5 µM | > 10 µM | > 10 µM | > 2 h | > 10 µM |
